Assay results as given in patent US9096591B2, “Tetracyclic compounds” (Medivation Technologies, Inc., priority 2007, dated 2015).
Read-outs that look alike come from different tables or passages of the source.

Assays:
[1] = tested on: AMPA receptors; experiment: AMPA-receptor activity: kainic acid-induced currents in Purkinje cells (patch-clamp); format: cell-based, rat; conditions: mean±SEM, control=100%
Description: The analysis of effects of the testing compounds on AMPA receptors was carried out using an electrophysiological patch-clamp method in whole cell configuration (Hamill et al., 1980) of the Purkinje cell fresh isolated from the cerebellum of juvenile rats (12-15 days). The isolation was carried out using a modified method (Kaneda et al., 1988) in which cerebral 400-600 μm sections were incubated for 60 min in the temperature controlled chamber in 10 mL of buffer solution (150 mM NaCl, 5 mM KCl, 2 mM CaCl2, 2 mM MgSO4.7H2O, 10 mM HEPES, 15 mM glucose, pH 7.42). The incubation solution was exchanged with the incubation buffer with pronase (2 mg/mL) and collagenase (1 mg/mL) for 70 min. After a 20 min wash with the original buffer, all sections were placed into the Petri dish and were separated using a Pasteur pipette. All solutions were constantly aerated with 100% O2 at 34° C. The composition of extracellular saline was: 150 mM NaCl, 5 mM KCl, 2.6 mM CaCl2, 2 mM MgSO4.7H2O, 10 mM HEPES, 15 mM glucose, pH 7.36. The transmembrane current was induced as a result of the activation of AMPA receptors by a superfusion with the agonist solution (kainic acid). The currents were measured using borosilicate microelectrodes (resistance […]) filled with 100 mM KCl, 11 mM EGTA, 1 mM CaCl2, 1 mM MgCl2, 10 mM HEPES, 5 mM ATP, pH 7.2. The currents were registered using EPC-9 (HEKA, Germany) and recorded with Pulse software package which was also purchased from HEKA. The analysis of observations was carried out using Pulsefit (HEKA, Germany) and the statistical significance was analyzed using a Student's T-test criteria. Data are presented as mean±SEM in % of control values.
Compounds of the invention were tested in 3-5 neurons. Every concentration of compound was repeated three-four times in every neuron. Data are presented as mean±SEM in % of Control values (Table 13+14, FIGS. 8-12). Control value=100%.

[2] = tested on: rat brain mitochondria; experiment: Ca2+-induced swelling of mitochondria (MPT pore opening); format: biochemical, Wistar rats; conditions: for A540 increase in mitochondrial suspension after addition of 100 μM of compound: 100 μM compound
Description: Rat liver and brain mitochondria were prepared from male Wistar rats. The rats were euthanized in a CO2 chamber followed by decapitation the procedure being in compliance with the Guidelines for Animal Experiments at IPAC RAS. […]
Brain mitochondria were isolated from the pooled forebrains of two rats. The modified method of Sims was used to isolate and purify brain mitochondria in a Percoll gradient. The brain was homogenized in “buffer A” (225 mM mannitol, 75 mM sucrose, 5 mM HEPES, 1 mM EGTA, pH 7.4 [KOH]) and centrifuged for 10 min at 1300 g. The supernatant was centrifuged for 10 min at 10000 g, and then the pellet was suspended in 15% Percoll and layered on a discontinuous gradient consisting of 40 and 23% Percoll, respectively, which was then centrifuged for 10 min at 30000 g without using brakes. The mitochondria were collected from the interface of the lower two layers and after resuspension in “buffer A”, the suspension was centrifuged at 16600 g for 10 min, then the pellet was resuspended in “buffer A”, BSA (10 mg/mL) was added to bind free fatty acids; and the suspensions was centrifuged again at 6300 g for 10 min. Following centrifugation the pelleted mitochondria were re-suspended in isolation medium without EGTA to achieve a protein concentration of 15-20 mg/ml.
Mitochondrial swelling caused by influx of solutes through open PT pores results in an increase in light transmission (i.e., a reduced turbidity). This turbidity change offers a convenient and frequently used assay of the MPT by measurement of absorbance in mitochondrial suspensions. In the present study, the MPT induced by Ca^2+ and inorganic phosphate (Ca/Pi) was monitored by absorbance changes at 540 nm in a cuvette in a Beckman DU 640 spectrophotometer in 1 ml of buffer A plus 0.8 μM rotenone, 5 mM succinate, 1 mM KH2PO4 and 0.5 mg or 0.2 mg protein of isolated liver or brain mitochondria, accordingly. Reaction was started by the addition of triggering agent (Ca^2+). Pre-treatment and reaction were performed at 30° C. Swelling rate was quantified as ΔA540/min/mg, calculated, in all cases, from a tangent to the steepest portion of the plot of A540 versus time.
Ca^2+-induced Swelling of mitochondria was used as the primary screening test for compounds influence on MPT pore opening. […] But the inhibition of swelling may be connected not only with direct inhibition of MPT pore opening but also with the impairment of respiratory function of mitochondria and with the compounds action on calcium transport into mitochondria. For the primary estimation of these possibilities the mitochondrial membrane potential and calcium retention capacity of mitochondria were measured. […] New synthesized compounds (except C-14 and C-43) alone induced an increase of brain mitochondria suspension turbidity. The mechanism of such effect needs additional investigations.

[3] = tested on: synaptosomes of cortex of rat brain; experiment: Glutamate-induced 45Ca2+ uptake into synaptosomes; format: biochemical, Wistar rats; conditions: for glutamate-induced 45Ca2+ uptake into synaptosomes of rat cortex, % of control: 50-100 μM; for % Ca of control (control-100%), glutamate-induced 45Ca2+ uptake into synaptosomes: rat cortex synaptosomes
Description: Synaptosomes were obtained from cerebral cortex of newborn (9-10 days) Wistar rats using standard Hajos method. The brain was homogenized with 10 volumes of cooled 0.32 M sucrose at 900 rpm. The homogenate was centrifuged at 1500 g for 10 min. and the resulted supernatant was centrifuged at 10000 g for 20 min. The radioactive label was accumulated by suspension of the synaptosomal P2-fraction in the incubation buffer A having the following composition: 132 mM NaCl, 5 mM KCl, 5 mM HEPES, 10 mM glucose, pH 7.4 (protein concentration of approximately 1.5-2 mg/ml). The mixture was further incubated for 5 min with 200 μM glutamate at 37° C. and then ^45Ca^2+ uptake was stopped by filtration through GF/B filters (Whatman, England) followed by three washes with cold buffer B (145 mM KCl, 10 mM Tris, 5.4 mM Trilon B, pH 7.4). The radioactivity probes were analyzed by fluid scintillation beta-analyzer (TriCarb, Perkin Elmer). All tests were performed in three parallel trials in 2-3 independent experiments. The amount of ^45Ca^2+ uptake was estimated by calculating the difference of radioactive label during the stimulation with glutamate and without the stimulation with agonist.
Specific ^45Ca^2+ uptake was estimated using the following equation: K(43/21)=[(Ca4−Ca3)/(Ca2−Ca1)]100%, where
Ca1—^45Ca^2+ uptake for the Control (without glutamate and the compound tested),
[…] glutamate-induced ^45Ca^2+ uptake (glutamate only),
Ca3—^45Ca^2+ uptake in the presence of the compound tested (without glutamate),
Ca4—^45Ca^2+ uptake in the presence of glutamate and the testing compound.
Statistical analysis of the results was performed using Student's t-test.

[4] = tested on: rat brain mitochondria; experiment: Mitochondrial membrane potential (safranine test); format: biochemical, Wistar rats; conditions: at concentrations up to 100 mkM
Description: The same experimental conditions were used for the assessment of alterations of the mitochondrial membrane potential, except that safranine was included in incubation medium at a final concentration of 10 mkM and succinate was added before the compounds of the invention. This concentration of safranine was determined before hand as the optimal compromise between signal/baseline ratio and interference of safranine itself with swelling induced by Ca/Pi (safranine tended to enhance Ca/Pi-induced swelling at concentrations above 20 mkM). Changes in the status of the mPT pore were assessed spectrophotometrically at 554 and 524 nm in a cuvette in a Beckman DU 640 spectrophotometer. A554-524 represents the characteristics of mitochondrial potential and A554-characteristics of mitochondrial swelling.

[5] = concentration reducing to 50% the initial rate of turbidity fall after calcium addition, read-out: IC50, decrease of calcium-induced swelling of brain mitochondria
[6] = read-out: IC50, Ca2+-induced (25-50 μM) swelling of brain mitochondria, rat brain mitochondria, Ca2+ 25-50 μM

| IC50 [2, 5] [µM] | IC50 [2, 6] [µM] | Compound | kainic acid-induced currents in Purkinje cells, % of Control values ([1]; compound 10^−5 M) [%] | kainic acid-induced currents in Purkinje cells, % of Control values ([1]; compound 10^−6 M) [%] | kainic acid-induced currents in Purkinje cells, % of Control values ([1]; compound 10^−7 M) [%] | kainic acid-induced currents in Purkinje cells, % of Control values ([1]; compound 10^−8 M) [%] | kainic acid-induced currents in Purkinje cells, % of Control values ([1]; compound 10^−9 M) [%] | A540 increase in mitochondrial suspension after addition of 100 μM of compound ([2]; rat brain mitochondria) [rel.units] | inhibition of glutamate-induced 45Ca2+ uptake into synaptosomes ([3]; 0.5 μM) [%] | glutamate-induced 45Ca2+ uptake into synaptosomes of rat cortex, % of control [3] [%] | % Ca of control (control-100%), glutamate-induced 45Ca2+ uptake into synaptosomes ([3]; compound 0.1 μM) [%] | % Ca of control (control-100%), glutamate-induced 45Ca2+ uptake into synaptosomes ([3]; compound 0.5 μM) [%] | % Ca of control (control-100%), glutamate-induced 45Ca2+ uptake into synaptosomes ([3]; compound 1 μM) [%] | % Ca of control (control-100%), glutamate-induced 45Ca2+ uptake into synaptosomes ([3]; compound 5 μM) [%] | % Ca of control (control-100%), glutamate-induced 45Ca2+ uptake into synaptosomes ([3]; compound 10 μM) [%] | % Ca of control (control-100%), glutamate-induced 45Ca2+ uptake into synaptosomes ([3]; compound 50 μM) [%] | % Ca of control (control-100%), glutamate-induced 45Ca2+ uptake into synaptosomes ([3]; compound 100 μM) [%] | depolarization of brain mitochondria [4] | kainic acid-induced currents in Purkinje cells, % of Control values ([1]; compound 3 × 10^−5 M) [%] | concentration at which glutamate-induced 45Ca2+ uptake into synaptosomes was not affected [3] [µM] |
| --- | --- | --- | --- | --- | --- | --- | --- | --- | --- | --- | --- | --- | --- | --- | --- | --- | --- | --- | --- | --- |
| ~94 | 93.9 ± 16.4 | CN1CCc2c(c3ccccc3n2CCc2nc(-c3ccncc3)cs2)C1 [Compound C1-4] | 100 ± 9 | 109 ± 12 | 114 ± 5 | 119 ± 6 | 129 ± 9 | 1 | ~12.6 | ~131 | 99.1 ± 2.5 | 87.4 ± 3.7 | 96.2 ± 5.0 | 94.9 ± 5.7 | 94.3 ± 2.7 | 112.7 ± 10.1 | 131.5 ± 0.1 | No depolarization | – | – |
| ~76 | 76 ± 12 | CN1CCc2c(c3ccccc3n2CCc2noc(-c3ccncc3)n2)C1 [Compound C4-3] | 100 ± 6 | 139 ± 11 | 149 ± 15 | 145 ± 12 | 100 ± 3 | 1 | – | ~126 | 93.2 ± 3.0 | 92.1 ± 3.3 | 101.0 ± 1.0 | 93.7 ± 6.8 | 94.7 ± 6.9 | 117.9 ± 6.0 | 125.6 ± 3.9 | No depolarization | 80 ± 10 | 0.1 to 50 |
